Patent publication EP0372582A2, “6-Aminoalkyl carbapenems” (Bristol-Myers Squibb Company, priority 1988, dated 1990)
Read-outs that look alike come from different tables or passages of the source.

Key:
E. coli A15119 = experiment: M.I.C., tube dilution method in Nutrient Broth; assay type: cell-based; conditions: unit assumed
Description: (§1) The following procedures illustrate the application of the process of this invention to the preparation of a variety of compounds of Formula V. In many instances, data illustrating the biological activity of the substances as antibiotics are presented. […] It is determined by interpolation from a graph of concentration versus number of cells following exposure of the organism to the test compound under growth conditions. Another parameter such as optical density which is proportional to the cell count may be used. In some instances MIC₉₀ values are also given. The latter refers to 90% growth inhibition.

E. coli A20341 = experiment: M.I.C., tube dilution method in Nutrient Broth; assay type: cell-based; conditions: unit assumed
Description: as §1

Ent. clo. A9656 = experiment: M.I.C., tube dilution method in Nutrient Broth; assay type: cell-based; conditions: unit assumed
Description: as §1

Ent. clo. A9659 = experiment: M.I.C., tube dilution method in Nutrient Broth; assay type: cell-based; conditions: unit assumed
Description: as §1

K. pneu. A20468 = experiment: M.I.C., tube dilution method in Nutrient Broth; assay type: cell-based; conditions: unit assumed
Description: as §1

K. pneu. A9664 = experiment: M.I.C., tube dilution method in Nutrient Broth; assay type: cell-based; conditions: unit assumed
Description: as §1

P. mir. A9900 = experiment: M.I.C., tube dilution method in Nutrient Broth; assay type: cell-based; conditions: unit assumed
Description: as §1

P. morg. A15153 = experiment: M.I.C., tube dilution method in Nutrient Broth; assay type: cell-based; conditions: unit assumed
Description: as §1

P. rett. A22424 = experiment: M.I.C., tube dilution method in Nutrient Broth; assay type: cell-based; conditions: unit assumed
Description: as §1

P. vul. A21559 = experiment: M.I.C., tube dilution method in Nutrient Broth; assay type: cell-based; conditions: unit assumed
Description: as §1

Ps. aeru. A9843 = experiment: M.I.C., tube dilution method in Nutrient Broth; assay type: cell-based; conditions: unit assumed
Description: as §1

Ps. aeru. CarbR = experiment: M.I.C., tube dilution method in Nutrient Broth; assay type: cell-based; conditions: unit assumed
Description: as §1

Ser. mars. A20019 = experiment: M.I.C., tube dilution method in Nutrient Broth; assay type: cell-based; conditions: unit assumed
Description: as §1

Staph aur. MR = experiment: M.I.C., tube dilution method in Nutrient Broth; assay type: cell-based; conditions: unit assumed
Description: as §1

Staph aur. Pen+ = experiment: M.I.C., tube dilution method in Nutrient Broth; assay type: cell-based; conditions: unit assumed
Description: as §1

Staph. aur. A9537 = experiment: M.I.C., tube dilution method in Nutrient Broth; assay type: cell-based; conditions: unit assumed
Description: as §1

Staph. serum = experiment: M.I.C., tube dilution method in Nutrient Broth; assay type: cell-based; conditions: unit assumed
Description: as §1

Str. faec. A20688 = experiment: M.I.C., tube dilution method in Nutrient Broth; assay type: cell-based; conditions: unit assumed
Description: as §1

Str. pneu. A9585 = experiment: M.I.C., tube dilution method in Nutrient Broth; assay type: cell-based; conditions: unit assumed
Description: as §1

Str. pyo. A9604 = experiment: M.I.C., tube dilution method in Nutrient Broth; assay type: cell-based; conditions: unit assumed
Description: as §1

[1] = Chemical stability in aqueous solution (half-life); assay type: physicochemical
Description: Chemical stability in aqueous solution at pH 7.4 and pH 2.0 is reported as half-life (t1/2). These values are determined by interpolation from a graph of concentration of test substance remaining in solution after storage under selected conditions for various periods of time.

[2] = Blood concentration parameters after administration to mice; assay type: in vivo; conditions: for U.R.: listed after the PO/50 lines, abbreviation not defined; for AUC / half-life / Cmax: mouse, mice; for half-life: blood half-life
From the text: […] "Cmax" is the maximum concentration achieved, "t1/2" is the half-life or time for half of the absorbed material to disappear from the blood stream.

E. coli = experiment: Protective dose (PD50) in infected animals; assay type: in vivo, mice; parameters: unit not given here; conditions: PO
From the text: (§2) The PD₅₀ values are protective doses, or the dose of test compound which secures survival of 50% of the animals of a test group, usually mice, during a designated period of time after being infected with an inoculum of infectious organism which will result in death of all inoculated untreated animals during that test period.

S. pneu = experiment: Protective dose (PD50) in infected animals; assay type: in vivo, mice; parameters: unit not given beside the values; conditions: PO
From the text: as §2

[3] = citric acid buffer, pH 2, 37°C, pH 2.0 citric acid buffer, by hplc, read-out: t1/2, pH 2
[4] = phosphate buffer, pH 7.4, 37°C, pH 7.4 phosphate buffer, by uv, read-out: t1/2, pH 7.4 (converted)

C[C@@H](N)[C@H]1C(=O)N2C(C(=O)O)=C(SCc3cn(C)nn3)[C@H](C)[C@H]12 [Procedure 15]
M.I.C. E. coli A15119 (E. coli A15119): 0.03 µg/mL
M.I.C. E. coli A20341 (E. coli A20341): 0.03 µg/mL
M.I.C. Ent. clo. A9656 (Ent. clo. A9656): 0.03 µg/mL
M.I.C. Ent. clo. A9659 (Ent. clo. A9659): 0.13 µg/mL
M.I.C. K. pneu. A20468 (K. pneu. A20468): 0.13 µg/mL
M.I.C. K. pneu. A9664 (K. pneu. A9664): 0.13 µg/mL
M.I.C. P. mir. A9900 (P. mir. A9900): 0.03 µg/mL
M.I.C. P. morg. A15153 (P. morg. A15153): 0.13 µg/mL
M.I.C. P. rett. A22424 (P. rett. A22424): 4 µg/mL
M.I.C. P. vul. A21559 (P. vul. A21559): 0.06 µg/mL
M.I.C. Ps. aeru. A9843 (Ps. aeru. A9843): 2 µg/mL
M.I.C. Ps. aeru. CarbR (Ps. aeru. CarbR): 16 µg/mL
M.I.C. Ser. mars. A20019 (Ser. mars. A20019): 0.13 µg/mL
M.I.C. Staph aur. MR (Staph aur. MR): 32 µg/mL
M.I.C. Staph aur. Pen+ (Staph aur. Pen+): 4 µg/mL
M.I.C. Staph. aur. A9537 (Staph. aur. A9537): 4 µg/mL
M.I.C. Staph. serum (Staph. serum): 4 µg/mL
M.I.C. Str. faec. A20688 (Str. faec. A20688): 125 µg/mL
M.I.C. Str. pneu. A9585 (Str. pneu. A9585): 1 µg/mL
M.I.C. Str. pyo. A9604 (Str. pyo. A9604): 1 µg/mL
half-life [1, 3]: 144 min
half-life [1, 4]: 186 min
U.R. [2]: 11
AUC ([2]; in vivo, PO, 50 mg/kg): 25000 ng·h/mL
half-life ([2]; in vivo, PO, 50 mg/kg): 24 min
Cmax ([2]; in vivo, PO, 50 mg/kg, read-out: Cmax, PO/50): 29000 ng/mL
PD50, E. coli (E. coli): 21.80

C[C@@H](N)[C@H]1C(=O)N2C(C(=O)O)=C(SCc3ccccn3)[C@H](C)[C@H]12 [Procedure 18, (5S,6R) 6-(1′R-Aminoethyl)-4R-methyl-3-[(pyridin-2-yl)methylthio]-7-oxo-1-azabicyclo[3.2.0]hept-2-ene-2-carboxylic Acid]
half-life [1, 3]: 120 min
half-life [1, 4]: 168 min
U.R. [2]: 17
half-life ([2]; 20 mg/kg, IM/20): 15 min
AUC ([2]; blood, 20 mg/kg, IM/20): 11000 ng·h/mL
Cmax ([2]; blood, 20 mg/kg, IM/20, read-out: Cmax, IM/20): 24000 ng/mL
AUC ([2]; blood, PO, 50 mg/kg): 32000 ng·h/mL
Cmax ([2]; blood, PO, 50 mg/kg, read-out: Cmax, PO/50): 33000 ng/mL
half-life ([2]; PO, 50 mg/kg): 24 min
PD50, E. coli (E. coli): 11.20
PD50, S. pneu (S. pneu): 16.5
